Results on 1 molecule are retold here after PMC6264278, “Corydaline Inhibits Multiple Cytochrome P450 and UDP-Glucuronosyltransferase Enzyme Activities in Human Liver Microsomes” (Molecules, 2011).

For one test, the target named is T1, CYP2A6 (Homo sapiens, UniProt P11509).
T1 construct: using pooled human liver microsomes; tissue BD Gentest Co. H161; host or cells: pooled human liver microsomes
T1 sequence (P11509 1-494): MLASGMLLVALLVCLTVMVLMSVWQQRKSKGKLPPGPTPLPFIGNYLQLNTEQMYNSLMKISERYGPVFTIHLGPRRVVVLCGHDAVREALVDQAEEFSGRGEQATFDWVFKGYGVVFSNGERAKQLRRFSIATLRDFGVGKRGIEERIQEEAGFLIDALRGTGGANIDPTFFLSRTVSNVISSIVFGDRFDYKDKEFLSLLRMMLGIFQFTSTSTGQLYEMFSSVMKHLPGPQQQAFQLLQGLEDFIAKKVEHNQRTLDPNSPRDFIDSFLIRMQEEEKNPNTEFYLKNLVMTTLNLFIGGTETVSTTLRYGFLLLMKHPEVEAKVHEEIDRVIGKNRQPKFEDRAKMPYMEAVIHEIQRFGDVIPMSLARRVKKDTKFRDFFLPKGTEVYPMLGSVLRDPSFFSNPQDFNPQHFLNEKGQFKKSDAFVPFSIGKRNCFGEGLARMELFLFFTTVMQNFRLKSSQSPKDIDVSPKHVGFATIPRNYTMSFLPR
Put plainly: CYP2A6 coumarin 7-hydroxylation inhibition, cocktail assay in pooled human liver microsomes. Conditions: 2.5 μM coumarin, no inhibition at 200 μM of corydaline; for IC50 no preincubation, CYP2A6 coumarin 7-hydroxylation: pooled human liver microsomes (H161). The format is in vitro ADME. How it is done: (§1) Phenacetin O-deethylase, coumarin 7-hydroxylase, amodiaquine N-deethylase, diclofenac 4-hydroxylase, S-mephenytoin 4-hydroxylase, bufuralol hydroxylase, and midazolam 1’-hydroxylase activities were determined as probe activities for CYP1A2, CYP2A6, CYP2C8, CYP2C9, CYP2C19, CYP2D6, and CYP3A4, respectively, using cocktail incubation and liquid chromatography-tandem mass spectrometry (LC/MS/MS). The incubation mixtures were prepared in a total volume of 200 μL, as follows: pooled human liver microsomes (0.25 mg/mL), 1.3 mM NADPH, 3.3 mM MgCl2, 50 mM potassium phosphate buffer (pH 7.4), and a cocktail of probe substrates and various concentrations of corydaline (1−200 μM). The substrates were used at concentrations approximately equal to their respective Km values: 50 μM phenacetin, 2.5 μM coumarin, 2.5 μM amodiaquine, 10 μM diclofenac, 100 μM S-mephenytoin, 5 μM bufuralol, and 2.5 μM midazolam. After a 3-min pre-incubation period at 37 °C, the reactions were initiated by addition of an NADP generating system and incubated for 20 min at 37 °C in a shaking water bath. After incubation, the reaction was stopped by placement of the tubes on ice and addition of 100 μL of ice-cold methanol containing internal standards (^13C2,^15N-acetaminophen for acetaminophen and N-desethylamodiaquine, d5-7-hydroxycoumarin for 7-hydroxycoumarin, ^13C6-4-hydroxydiclofenac for 4-hydroxydiclofenac, d3-4-hydroxy-mephenytoin for 4-hydroxymephenytoin and hydroxymidazolam, d9-1-hydroxybufuralol for 1-hydroxybufuralol). The incubation mixtures were then centrifuged at 13,000 × g for 5 min. All incubations were performed in triplicate and the mean values were used. […] The reaction was started by addition of a cocktail of CYP probe substrates.
(§2) All 7 metabolites produced from the cocktail of CYP isoform-specific substrates were simultaneously determined by LC/MS/MS [25]. […] Quantification was performed by selected reaction monitoring (SRM) of the [M+H]^+ ion and the related product ion for each metabolite. […]
In general terms: Liver microsomes are vesicles of endoplasmic reticulum, rich in cytochrome P450 enzymes.

A further test has as its target T2, CYP3A (Homo sapiens, UniProt P08684).
T2 construct: using pooled human liver microsomes; tissue BD Gentest Co. H161; host or cells: pooled human liver microsomes
Put plainly: CYP3A midazolam 1'-hydroxylation inhibition, cocktail assay in pooled human liver microsomes. The format is in vitro ADME. Conditions: 2.5 μM midazolam. The method, then: as §1, §2

The structures appear in SMILES notation. Where two headings read alike, the source gives them in different places.

T2 sequence (P08684 2-503): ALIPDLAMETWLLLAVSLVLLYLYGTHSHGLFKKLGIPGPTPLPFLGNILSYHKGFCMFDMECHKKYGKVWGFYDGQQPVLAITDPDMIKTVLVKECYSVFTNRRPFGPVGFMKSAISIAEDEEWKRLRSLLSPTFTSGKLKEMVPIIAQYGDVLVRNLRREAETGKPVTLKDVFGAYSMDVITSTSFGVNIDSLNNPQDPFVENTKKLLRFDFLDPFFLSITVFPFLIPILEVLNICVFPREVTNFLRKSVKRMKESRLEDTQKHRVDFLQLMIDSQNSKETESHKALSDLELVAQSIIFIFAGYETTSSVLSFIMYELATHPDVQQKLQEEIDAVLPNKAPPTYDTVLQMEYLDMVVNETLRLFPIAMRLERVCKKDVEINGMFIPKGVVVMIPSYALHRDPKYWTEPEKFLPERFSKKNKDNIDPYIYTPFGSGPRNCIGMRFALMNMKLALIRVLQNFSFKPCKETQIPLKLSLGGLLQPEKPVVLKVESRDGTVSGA

For orientation: IC50 means the concentration at which inhibition is half-maximal. Regarding `COc1cc2c(cc1OC)C1C(C)c3ccc(OC)c(OC)c3CN1CC2` (stereo not drawn) [Corydaline, 2,3,9,10-tetramethoxy-13-methyl-5,8,13,13a-tetrahydro-6H-isoquino[3,2-a]isoquinoline], the results for the “IC50 no preincubation, CYP2A6 coumarin 7-hydroxylation” value on CYP2A6 and at CYP2A6 (listed as corydaline) were “negligible inhibition” and “No inhibition **”, respectively. On CYP2A6 (pre-incubated 30 min with NADPH), the “IC50 with preincubation, CYP2A6 coumarin 7-hydroxylation” value was “No inhibition **”. For the same molecule, the “IC50 no preincubation, CYP3A midazolam 1'-hydroxylation” value against CYP3A (pooled human liver microsomes (H161)) is “negligible inhibition”. The IC50 is above 200 µM at CYP3A (pooled human liver microsomes (H161), read-out: IC50 no preincubation, CYP3A midazolam 1'-hydroxylation) and 67.4 ± 9.8 µM at CYP3A (pre-incubated 30 min with NADPH, mean ± SD, n = 3, read-out: IC50 with preincubation, CYP3A midazolam 1'-hydroxylation).
